Results reported in patent US20150352108A1, “AMINO-PYRIMIDINE COMPOUNDS AS INHIBITORS OF TBK1 AND/OR IKK EPSILON” (Alzheimer's Institute of America, priority 2009, published 2015).
Read-outs that look alike come from different tables or passages of the source.

Key:
IKKε = target: T1, IKKε (Homo sapiens, UniProt Q14164); experiment: In-vitro IKKε kinase assay ([γ33]ATP filter-plate); assay type: biochemical
T1 construct: His-tag; made in house; host or cells: Sf9 insect cells
T1 sequence (Q14164 1-716): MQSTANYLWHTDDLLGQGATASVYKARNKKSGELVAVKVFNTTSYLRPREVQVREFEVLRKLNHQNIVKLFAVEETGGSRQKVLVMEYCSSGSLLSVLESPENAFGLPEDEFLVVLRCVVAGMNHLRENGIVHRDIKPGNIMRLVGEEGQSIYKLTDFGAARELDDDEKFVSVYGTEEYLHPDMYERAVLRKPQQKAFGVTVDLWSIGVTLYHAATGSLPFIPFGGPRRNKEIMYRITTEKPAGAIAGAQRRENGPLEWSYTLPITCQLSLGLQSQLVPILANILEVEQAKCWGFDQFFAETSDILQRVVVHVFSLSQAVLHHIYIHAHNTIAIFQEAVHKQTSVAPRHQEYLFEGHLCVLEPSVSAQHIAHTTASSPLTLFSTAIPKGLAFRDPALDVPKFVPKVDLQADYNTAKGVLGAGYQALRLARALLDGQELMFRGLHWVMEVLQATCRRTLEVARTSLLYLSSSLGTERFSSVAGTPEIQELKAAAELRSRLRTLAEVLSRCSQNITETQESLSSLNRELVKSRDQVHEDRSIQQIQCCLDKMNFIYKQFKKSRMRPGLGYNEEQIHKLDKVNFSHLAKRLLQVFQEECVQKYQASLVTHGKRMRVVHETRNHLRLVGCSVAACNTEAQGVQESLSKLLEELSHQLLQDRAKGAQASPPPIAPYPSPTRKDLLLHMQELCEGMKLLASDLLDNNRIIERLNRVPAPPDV
Outline: (§1)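 His-tagged IKKε and TBK1 from Sf9 cells were assayed with myelin basic protein or casein and [γ33]ATP at 2×Km ATP (32 μM for IKKε, 60 μM for TBK1). Enzyme was 0.1 or 0.015 μg/ml for IKKε and 0.1 or 0.02 μg/ml for TBK1 (normal/sensitized). Reactions ran 30-45 min, were filter-captured, scintillation-counted, and normalized to DMSO after background subtraction.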

TBK1 = target: T2, TBK1 (Homo sapiens, UniProt Q9UHD2); experiment: In-vitro TBK1 kinase assay ([γ33]ATP filter-plate); assay type: biochemical
T2 construct: His-tag; made in house; host or cells: Sf9 insect cells
T2 sequence (Q9UHD2 1-729): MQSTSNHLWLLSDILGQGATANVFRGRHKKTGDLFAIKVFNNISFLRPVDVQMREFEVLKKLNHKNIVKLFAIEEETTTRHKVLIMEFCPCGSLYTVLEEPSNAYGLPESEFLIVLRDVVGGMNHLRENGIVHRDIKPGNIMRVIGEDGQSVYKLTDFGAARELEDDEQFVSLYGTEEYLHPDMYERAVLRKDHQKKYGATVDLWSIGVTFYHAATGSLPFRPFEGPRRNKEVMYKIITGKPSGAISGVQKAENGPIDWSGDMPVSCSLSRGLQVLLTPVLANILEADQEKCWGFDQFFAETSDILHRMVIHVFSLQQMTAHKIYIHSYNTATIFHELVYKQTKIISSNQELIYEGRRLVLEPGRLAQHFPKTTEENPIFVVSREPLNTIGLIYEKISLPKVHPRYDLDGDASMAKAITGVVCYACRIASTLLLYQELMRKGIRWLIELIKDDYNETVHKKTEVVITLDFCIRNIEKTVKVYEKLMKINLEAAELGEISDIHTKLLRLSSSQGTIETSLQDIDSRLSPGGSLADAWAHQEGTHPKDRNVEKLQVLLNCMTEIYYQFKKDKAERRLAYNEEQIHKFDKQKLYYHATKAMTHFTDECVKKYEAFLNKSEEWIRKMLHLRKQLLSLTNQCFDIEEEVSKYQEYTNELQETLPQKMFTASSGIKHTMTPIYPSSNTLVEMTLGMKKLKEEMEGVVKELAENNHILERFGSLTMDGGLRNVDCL
Outline: as §1

[1] = test system: IKKε-mediated phosphorylation of IRF3; experiment: In-situ phosphorylation of IRF3 (pIRF3 Ser396 ELISA) in HEK293T cells cotransfected with IRF3 and IKKε; assay type: cell-based; conditions: Homo sapiens, HEK-293T
Outline: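 For the IRF3 ELISA, HEK293T cells cotransfected with IRF3 and IKKε were replated at 20,000/well and treated 20 h. Phospho-Ser396 IRF3 was measured by ELISA and normalised to DMSO, with viability checked by CellTiter-Glo. For IRF7, cells transfected with IRF7 and TBK1 were treated overnight, and pSer477/Ser479 IRF7 was detected by Western blot.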

[2] = text bins, read-out: IC50 for inhibition of the kinase activity of IKKε
[3] = text bins, read-out: IC50 for inhibition of the kinase activity of TBK1
[4] = HEK293T cells, 20 hours, text bins, read-out: IC50 for inhibition of the in-situ IKKε-mediated phosphorylation of IRF3
[5] = HEK293T cells in culture, Table 3, read-out: pIRF3 ELISA IC50

SMILES	IC50 (IKKε; [2])	IC50 (TBK1; [3])	IC50 [1, 4]	IC50 (IKKε; Table 3, read-out: IKKε IC50)	IC50 (TBK1; Table 3, read-out: TBK1 IC50)	IC50 [1, 5]
N#Cc1cc(-c2ccnc(Nc3ccc(CNC(=O)CO)cc3)n2)ccc1OC1CCOCC1 [compound 495, N-[4-({4-[3-cyano-4-(tetrahydro-2H-pyran-4-yloxy)phenyl]pyrimidin-2-yl}amino)benzyl]-2-hydroxyacetamide]	< 0.005 µM	< 0.01 µM	< 0.1 µM			
N#Cc1cc(-c2ccnc(Nc3ccc(CS(=O)(=O)N4CCN(CCO)CC4)cc3)n2)ccc1OC1CCOCC1 [compound 406, 5-(2-{[4-({[4-(2-Hydroxyethyl)piperazin-1-yl]sulfonyl}methyl)phenyl]amino}pyrimidin-4-yl)-2-(tetrahydro-2H-pyran-4-yloxy)benzonitrile]	< 0.005 µM	< 0.01 µM	< 0.1 µM			
COCCNC(=O)Nc1cccc(Nc2nccc(-c3ccc(OC4CCOCC4)c(C#N)c3)n2)c1 [compound 543, 1-[3-({4-[3-Cyano-4-(tetrahydro-2H-pyran-4-yloxy)phenyl]pyrimidin-2-yl}amino)phenyl]-3-(2-methoxyethyl)urea]	< 0.005 µM	< 0.01 µM	< 0.1 µM	0.0011 µM	0.0013 µM	0.0503 µM
Cc1cc(Nc2nccc(-c3ccc(OC4CCOCC4)c(C#N)c3)n2)ccc1N1CCOCC1 [Example 18, 5-(2-{[3-methyl-4-(morpholin-4-yl)phenyl]amino}pyrimidin-4-yl)-2-(tetrahydro-2H-pyran-4-yloxy)benzonitrile]	< 0.005 µM	< 0.01 µM	0.1 to 0.25 µM			
CN1CCC(NCc2cccc(Nc3nccc(-c4ccc(OC5CCOCC5)c(C#N)c4)n3)c2)CC1 [Example 271, 5-{2-[(3-{[(1-Methylpiperidin-4-yl)amino]methyl}phenyl)amino]pyrimidin-4-yl}-2-(tetrahydro-2H-pyran-4-yloxy)benzonitrile]	< 0.005 µM	< 0.01 µM	< 0.1 µM			
COc1cc(Nc2nccc(-c3ccc(OC4CCOCC4)c(C#N)c3)n2)ccc1S(=O)(=O)NCCCN1CCOCC1 [Example 176]	< 0.005 µM	< 0.01 µM	< 0.1 µM	0.0009 µM	0.0003 µM	0.0125 µM
N#Cc1cc(-c2ccnc(Nc3ccc(F)c(OCCCN4CCOCC4)c3)n2)ccc1OC1CCOCC1 [compound 519, 5-[2-({4-Fluoro-3-[3-(morpholin-4-yl)propoxy]phenyl}amino)pyrimidin-4-yl]-2-(tetrahydro-2H-pyran-4-yloxy)benzonitrile]	< 0.005 µM	< 0.01 µM	< 0.1 µM			
COc1cc(Nc2nccc(-c3ccc(OC4CCOCC4)c(C#N)c3)n2)ccc1CN1C[C@@H](C)O[C@@H](C)C1 [compound 480, 5-{2-[(4-{[(2R,6S)-2,6-Dimethylmorpholin-4-yl]methyl}-3-methoxyphenyl)amino]pyrimidin-4-yl}-2-(tetrahydro-2H-pyran-4-yloxy)benzonitrile]	< 0.005 µM	< 0.01 µM	< 0.1 µM			
COc1cc(Nc2nccc(-c3ccc(OC4CCOCC4)c(C#N)c3)n2)ccc1OCCCN1CCOCC1 [Example 31, 5-[2-({3-methoxy-4-[3-(morpholin-4-tl)propoxy]phenyl}amino)pyrimidin-4-yl]-2-(tetrahydro-2H-pyran-4-yloxy)benzonitrile]	< 0.005 µM	< 0.01 µM	< 0.1 µM			
COc1ccc(Nc2nccc(-c3ccc(OC4CCOCC4)c(C#N)c3)n2)cc1OCCOCCN [Example 32, 5-[2-({3-[2-(2-aminoethoxy)ethoxy]-4-methoxyphenyl}amino)pyrimidin-4-yl]-2-(tetrahydro-2H-pyran-4-yloxy)benzonitrile]	< 0.005 µM	< 0.01 µM	0.1 to 0.25 µM			
CCN(CC)CCOc1cc(Nc2nccc(-c3ccc(OC4CCOCC4)c(C#N)c3)n2)ccc1C [compound 618, 5-[2-({3-[2-(Diethylamino)ethoxy]-4-methylphenyl}amino)pyrimidin-4-yl]-2-(tetrahydro-2H-pyran-4-yloxy)benzonitrile]	< 0.005 µM	< 0.01 µM	< 0.1 µM			
COc1cc(Nc2nccc(-c3ccc(OC4CCOCC4)c(C#N)c3)n2)ccc1C(=O)N1CC(N(C)C)C1 [compound 377, 5-{2-[(4-{[3-(dimethylamino)azetidin-1-yl]carbonyl}-3-methoxyphenyl)amino]pyrimidin-4-yl}-2-(tetrahydro-2H-pyran-4-yloxy)benzonitrile]	< 0.005 µM	< 0.01 µM	0.1 to 0.25 µM			
COc1ccc(Nc2nccc(-c3ccc(OC4CCOCC4)c(C#N)c3)n2)cc1OCCCC1CCN(C(C)C)CC1 [compound 520, 5-{2-[(4-medthoxy-3-{3-[1-(propan-2-yl)piperidin-4-yl]propoxy}phenyl)amino]pyrimidin-4-yl}-2-(tetrahydro-2H-pyran-4-yloxy)benzonitrile]	< 0.005 µM	< 0.01 µM	< 0.1 µM			
CC(C)(C)CC(=O)Nc1ccc(-c2ccnc(Nc3ccc(N4CCOCC4)cc3)n2)cc1C#N [Example 202, N-[2-cyano-4-(2-{[4-(morpholin-4-yl)phenyl]amino}pyrimidin-4-yl)phenyl]-3,3-dimethylbutanamide]	0.005 to 0.05 µM	< 0.01 µM	0.1 to 0.25 µM			
C[C@H](O)C(=O)NCc1ccc(Nc2nccc(-c3ccc(OC4CCOCC4)c(C#N)c3)n2)cc1 [compound 494, (2S)-N-[4-({4-[3-cyano-4-(tetrahydro-2H-pyran-4-yloxy)phenyl]pyrimidin-2-yl}amino)benzyl]-2-hydroxypropanamide]	< 0.005 µM	< 0.01 µM	0.1 to 0.25 µM			
CCOC1CN(C(=O)c2ccc(Nc3nccc(-c4ccc(OC5CCOCC5)c(C#N)c4)n3)cc2OC)C1 [compound 599, 5-[2-({4-[(3-Ethoxyazetidin-1-yl)carbonyl]-3-methoxyphenyl}amino)pyrimidin-4-yl]-2-(tetrahydro-2H-pyran-4-yloxy)benzonitrile]	< 0.005 µM	< 0.01 µM	< 0.1 µM			
CNS(=O)(=O)Cc1ccc(Nc2nccc(-c3ccc(NC(=O)C(C)C)c(C#N)c3)n2)cc1 [compound 414, N-{2-cyano-4-[2-({4-[(methylsulfamoyl)methyl]phenyl}amino)pyrimidin-4-yl]phenyl}-2-methylpropanamide]	0.005 to 0.05 µM	0.01 to 0.1 µM	0.1 to 0.25 µM			
COc1cc(Nc2nccc(-c3ccc(OC4CCN(C(=O)CO)C4)c(C#N)c3)n2)ccc1N1CCOCC1 (stereo not drawn) [Example 223, 2-{[1-(hydroxyacetyl)pyrrolidin-3-yl]oxy}-5-(2-{[3-methoxy-4-(morpholin-4-yl)phenyl]amino}pyrimidin-4-yl)benzonitrile]	< 0.005 µM	< 0.01 µM	< 0.1 µM			
CC1CC1C(=O)Nc1ccc(-c2ccnc(Nc3ccc(N4CCOCC4)cc3)n2)cc1C#N (stereo not drawn) [compound 415, N-[2-cyano-4-(2-{[4-(morpholin-4-yl)phenyl]amino}pyrimidin-4-yl)phenyl]-2-methylcyclopropane-carboxamide]	< 0.005 µM	< 0.01 µM	< 0.1 µM			
